Source: patent publication US4062862A, “5-Benzyl-2-oxazolidone derivatives and a process for producing the same” (Nippon Chemiphar Co., Ltd., priority 1975, dated 1977)

What was measured:
mice [1] = assay: Muscular relaxing effect, Righting Reflex Test (R.r), oral, mice; assay type: in vivo, dd Male mice; settings: Mus musculus; for responders at 500 mg/kg: read-out: Inhibition percent of the central muscular relaxing effect, R.r (Righting Reflex Test)
Experimental: (§1) dd Male mice weighing 18 to 22 g, one group consisting of 10 animals, were orally given the compounds (I) to (V) as indicated below suspended in 0.2% carboxymethylcellulose solution in a dose of 0.25ml/10g-body weight. Mephenesin was used as active placebo.

mice [2] = assay: Muscular relaxing effect, Corneal Reflex Test (C.r), oral, mice; assay type: in vivo, dd Male mice; settings: Mus musculus; for responders at 500 mg/kg: read-out: Inhibition percent of the central muscular relaxing effect, C.r (Corneal Reflex Test)
Experimental: as §1
Corneal reflex was observed by using mandolin wire for 1/4 injection syringe.

mice [3] = assay: Muscular relaxing effect, Traction Test (T.T), oral, mice; assay type: in vivo, dd Male mice; settings: Mus musculus; for responders at 500 mg/kg: read-out: Inhibition percent of the central muscular relaxing effect, T.T (Traction Test)
Experimental: as §1

[4] = test system: carrageenan-induced edema in rats; assay: Antiinflammatory effect on carrageenan-induced edema; assay type: in vivo, Wistar male rats
Experimental: […] One hour after the administration of the test compounds, the hind paw was given a subcutaneous injection of 0.05ml of 0.5% carrageenan saline solution, and volume of the hind paw was measured at 1, 2, 3, 4, 5 and 6 hours after the injection of carrageenan by a volume differential meter. Inhibitory percent was calculated based on the swelling in the control. Phenybutazone was used as active placebo.

mice [5] = assay: Muscular relaxing effect, Rotarod Method (R.R), oral, mice; assay type: in vivo, dd Male mice; settings: Mus musculus; for responders at 500 mg/kg: read-out: Inhibition percent of the central muscular relaxing effect, R.R (Rotarod Method)
Experimental: as §1
Mice were placed on Rotar Load (made by Natsume Seisakusho Co., Ltd.) having a diameter of 3 cm rotating at a speed of 10 rpm and falling (occurring within 3 minutes) was observed.

mice [6] = assay: Muscular relaxing effect, Inclined Plane Test (I.P), oral, mice; assay type: in vivo, dd Male mice; settings: Mus musculus; for responders at 500 mg/kg: read-out: Inhibition percent of the central muscular relaxing effect, I.P (Inclined Plane Test)
Experimental: as §1
Mice were placed on veneer inclined at an angle of 30° and on wire-netting inclined at an angle of 60° of which one division is 5 mm square, and mice sliding down were observed as positive, in comparison with normal behavior.

mice [7] = assay: Muscular relaxing effect, Pinna Reflex Test (P.r), oral, mice; assay type: in vivo, dd Male mice; settings: Mus musculus; for responders at 500 mg/kg: read-out: Inhibition percent of the central muscular relaxing effect, P.r (Pinna Reflex Test)
Experimental: as §1
Pinna reflex was observed by using mandolin wire for 1/4 injection syringe.

pain threshold in mice = assay: Analgetic effect, Pressure Test (pain threshold, tail pressure); assay type: in vivo, dd Male mice; settings: 100 mg/kg oral
Experimental: dd Male mice weighing 18 to 22 g (pain threshold ranging within 30 to 50 mmHg), one group consisting of 10 animals, were given orally the test compounds suspended in 0.2% carboxymethylcellulose solution in a dose of 100mg/kg-body weight. Pain threshold were measured at 30, 60, 90 and 120 minutes after the administration of the test compounds while pain reaction occurring by application of pressure on tails of animals was referred to as indication. Aminopyrine was used as active placebo.

[8] = Table 1, oral, mice, maximum response 15-180 min, Litchfield Wilcoxon

SMILES: O=C1NCC(Cc2cccc(C(F)(F)F)c2)O1 (stereo not drawn) [IX, 5-(m-trifluoromethylbenzyl)-2-oxazolidone]
- responders at 500 mg/kg (mice [1]; Table 2, 500 mg/kg, oral, mice): 0%
- responders at 500 mg/kg (mice [2]; Table 2, 500 mg/kg, oral, mice): 0%
- responders at 500 mg/kg (mice [3]; Table 2, 500 mg/kg, oral, mice): 60%
- Inhibitory per cent, carrageenan-induced edema, 1 hr ([4]; Table 6, 200 mg/kg oral): 45.0 per cent
- Inhibitory per cent, carrageenan-induced edema, 2 hrs. ([4]; Table 6, 200 mg/kg oral): 49.4 per cent
- Inhibitory per cent, carrageenan-induced edema, 3 hrs. ([4]; Table 6, 200 mg/kg oral): 20.8 per cent
- Inhibitory per cent, carrageenan-induced edema, 4 hrs. ([4]; Table 6, 200 mg/kg oral): 11.3 per cent
- Inhibitory per cent, carrageenan-induced edema, 5 hrs. ([4]; Table 6, 200 mg/kg oral): 14.5 per cent
- Inhibitory per cent, carrageenan-induced edema, 6 hrs. ([4]; Table 6, 200 mg/kg oral): 11.5 per cent
- responders at 500 mg/kg (mice [5]; Table 2, 500 mg/kg, oral, mice): 90%
- responders at 500 mg/kg (mice [6]; Table 2, 500 mg/kg, oral, mice): 60%
- responders at 500 mg/kg (mice [7]; Table 2, 500 mg/kg, oral, mice): 60%

SMILES: Cc1ccccc1OCC(O)CO (stereo not drawn) [Mephenesin, reference compound]
- ED50 (mice [1]; [8]): 640 mg/kg
- responders at 500 mg/kg (mice [1]; Table 2, 500 mg/kg, oral, mice): 20%
- ED50 (mice [2]; [8]): 680 mg/kg
- responders at 500 mg/kg (mice [2]; Table 2, 500 mg/kg, oral, mice): 0%
- ED50 (mice [3]; [8]): 460 mg/kg
- responders at 500 mg/kg (mice [3]; Table 2, 500 mg/kg, oral, mice): 40%
- ED50 (mice [5]; [8]): 268 mg/kg
- responders at 500 mg/kg (mice [5]; Table 2, 500 mg/kg, oral, mice): 80%
- ED50 (mice [6]; [8]): 470 mg/kg
- responders at 500 mg/kg (mice [6]; Table 2, 500 mg/kg, oral, mice): 60%
- ED50 (mice [7]; [8]): 420 mg/kg
- responders at 500 mg/kg (mice [7]; Table 2, 500 mg/kg, oral, mice): 20%

SMILES: CCc1ccccc1CC1CNC(=O)O1 (stereo not drawn) [Compound VI, 5-(o-ethylbenzyl)-2-oxazolidone]
- responders at 500 mg/kg (mice [1]; Table 2, 500 mg/kg, oral, mice): 10%
- responders at 500 mg/kg (mice [2]; Table 2, 500 mg/kg, oral, mice): 0%
- responders at 500 mg/kg (mice [3]; Table 2, 500 mg/kg, oral, mice): 40%
- Inhibitory per cent, carrageenan-induced edema, 1 hr ([4]; Table 6, 100 mg/kg oral): 27.8 per cent
- Inhibitory per cent, carrageenan-induced edema, 2 hrs. ([4]; Table 6, 100 mg/kg oral): 36.3 per cent
- Inhibitory per cent, carrageenan-induced edema, 3 hrs. ([4]; Table 6, 100 mg/kg oral): 53.6 per cent
- Inhibitory per cent, carrageenan-induced edema, 4 hrs. ([4]; Table 6, 100 mg/kg oral): 28.9 per cent
- Inhibitory per cent, carrageenan-induced edema, 5 hrs. ([4]; Table 6, 100 mg/kg oral): 22.0 per cent
- Inhibitory per cent, carrageenan-induced edema, 6 hrs. ([4]; Table 6, 100 mg/kg oral): 17.4 per cent
- responders at 500 mg/kg (mice [5]; Table 2, 500 mg/kg, oral, mice): 60%
- responders at 500 mg/kg (mice [6]; Table 2, 500 mg/kg, oral, mice): 50%
- responders at 500 mg/kg (mice [7]; Table 2, 500 mg/kg, oral, mice): 10%

SMILES: O=C1NCC(Cc2ccc(F)cc2)O1 (stereo not drawn) [Compound XI, 5-(p-fluorobenzyl)-2-oxazolidone]
- responders at 500 mg/kg (mice [1]; Table 2, 500 mg/kg, oral, mice): 10%
- responders at 500 mg/kg (mice [2]; Table 2, 500 mg/kg, oral, mice): 0%
- responders at 500 mg/kg (mice [3]; Table 2, 500 mg/kg, oral, mice): 90%
- Inhibitory per cent, carrageenan-induced edema, 1 hr ([4]; Table 6, 200 mg/kg oral): 38.3 per cent
- Inhibitory per cent, carrageenan-induced edema, 2 hrs. ([4]; Table 6, 200 mg/kg oral): 47.5 per cent
- Inhibitory per cent, carrageenan-induced edema, 3 hrs. ([4]; Table 6, 200 mg/kg oral): 44.5 per cent
- Inhibitory per cent, carrageenan-induced edema, 4 hrs. ([4]; Table 6, 200 mg/kg oral): 34.4 per cent
- Inhibitory per cent, carrageenan-induced edema, 5 hrs. ([4]; Table 6, 200 mg/kg oral): 9.2 per cent
- Inhibitory per cent, carrageenan-induced edema, 6 hrs. ([4]; Table 6, 200 mg/kg oral): 8.9 per cent
- responders at 500 mg/kg (mice [5]; Table 2, 500 mg/kg, oral, mice): 100%
- responders at 500 mg/kg (mice [6]; Table 2, 500 mg/kg, oral, mice): 80%
- responders at 500 mg/kg (mice [7]; Table 2, 500 mg/kg, oral, mice): 60%

SMILES: NC(=O)OCCCc1ccccc1 [GP, γ-phenylpropylcarbamate, reference compound]
- responders at 500 mg/kg (mice [1]; po): 0%
- responders at 500 mg/kg (mice [2]; po): 0%
- responders at 500 mg/kg (mice [3]; po): 40%
- responders at 500 mg/kg (mice [5]; po): 60%
- responders at 500 mg/kg (mice [6]; po): 30%
- responders at 500 mg/kg (mice [7]; po): 10%

SMILES: C=CCOc1ccccc1CC1CNC(=O)O1 (stereo not drawn) [Compound X, 5-(o-allyloxybenzyl)-2-oxazolidone]
- responders at 500 mg/kg (mice [1]; Table 2, 500 mg/kg, oral, mice): 30%
- responders at 500 mg/kg (mice [2]; Table 2, 500 mg/kg, oral, mice): 0%
- responders at 500 mg/kg (mice [3]; Table 2, 500 mg/kg, oral, mice): 40%
- responders at 500 mg/kg (mice [5]; Table 2, 500 mg/kg, oral, mice): 80%
- responders at 500 mg/kg (mice [6]; Table 2, 500 mg/kg, oral, mice): 40%
- responders at 500 mg/kg (mice [7]; Table 2, 500 mg/kg, oral, mice): 40%

SMILES: CCc1ccc(CC2CNC(=O)O2)cc1 (stereo not drawn) [VII, 5-(p-ethylbenzyl)-2-oxazolidone]
- responders at 500 mg/kg (mice [1]; Table 2, 500 mg/kg, oral, mice): 0%
- responders at 500 mg/kg (mice [2]; Table 2, 500 mg/kg, oral, mice): 0%
- responders at 500 mg/kg (mice [3]; Table 2, 500 mg/kg, oral, mice): 40%
- responders at 500 mg/kg (mice [5]; Table 2, 500 mg/kg, oral, mice): 80%
- responders at 500 mg/kg (mice [6]; Table 2, 500 mg/kg, oral, mice): 40%
- responders at 500 mg/kg (mice [7]; Table 2, 500 mg/kg, oral, mice): 0%

SMILES: CCCCC1C(=O)N(c2ccccc2)N(c2ccccc2)C1=O [Phenylbutazone, reference compound]
- Inhibitory per cent, carrageenan-induced edema, 3 hrs. ([4]; Table 5, 200 mg/kg oral): 76.6 per cent
- Inhibitory per cent, carrageenan-induced edema, 6 hrs. ([4]; Table 5, 200 mg/kg oral): 45.1 per cent
- Inhibitory per cent, carrageenan-induced edema, 1 hr ([4]; Table 6, 100 mg/kg oral): 59.1 per cent
- Inhibitory per cent, carrageenan-induced edema, 2 hrs. ([4]; Table 6, 100 mg/kg oral): 54.6 per cent
- Inhibitory per cent, carrageenan-induced edema, 3 hrs. ([4]; Table 6, 100 mg/kg oral): 59.7 per cent
- Inhibitory per cent, carrageenan-induced edema, 4 hrs. ([4]; Table 6, 100 mg/kg oral): 68.2 per cent
- Inhibitory per cent, carrageenan-induced edema, 5 hrs. ([4]; Table 6, 100 mg/kg oral): 63.4 per cent
- Inhibitory per cent, carrageenan-induced edema, 6 hrs. ([4]; Table 6, 100 mg/kg oral): 52.6 per cent

SMILES: O=C1NCC(Cc2ccccc2F)O1 (stereo not drawn) [XIII, 5-(o-fluorobenzyl)-2-oxazolidone]
- responders at 500 mg/kg (mice [1]; Table 2, 500 mg/kg, oral, mice): 20%
- responders at 500 mg/kg (mice [2]; Table 2, 500 mg/kg, oral, mice): 10%
- responders at 500 mg/kg (mice [3]; Table 2, 500 mg/kg, oral, mice): 70%
- Pain threshold Increase Ratio (pain threshold in mice): 1.13
- Pain threshold, Mean ± SE, 30 min (pain threshold in mice; 30 min, *p <0.05, **p <0.01, ***p <0.001): 52.1 ± 3.4 mmHg
- Pain threshold, Mean ± SE, 60 min (pain threshold in mice; 60 min, *p <0.05, **p <0.01, ***p <0.001): 53.7 ± 2.6 mmHg
- Pain threshold, Mean ± SE, 90 min (pain threshold in mice; 90 min, *p <0.05, **p <0.01, ***p <0.001): 50.4 ± 2.8 mmHg
- Pain threshold, Mean ± SE, 120 min (pain threshold in mice; 120 min, *p <0.05, **p <0.01, ***p <0.001): 47.3 ± 1.8 mmHg
- responders at 500 mg/kg (mice [5]; Table 2, 500 mg/kg, oral, mice): 90%
- responders at 500 mg/kg (mice [6]; Table 2, 500 mg/kg, oral, mice): 50%
- responders at 500 mg/kg (mice [7]; Table 2, 500 mg/kg, oral, mice): 0%

SMILES: O=C1NCC(Cc2ccccc2Oc2ccccc2)O1 (stereo not drawn) [Compound XV, 5-(o-phenoxybenzyl)-2-oxazolidone]
- Inhibitory per cent, carrageenan-induced edema, 1 hr ([4]; Table 6, 100 mg/kg oral): 59.5 per cent
- Inhibitory per cent, carrageenan-induced edema, 2 hrs. ([4]; Table 6, 100 mg/kg oral): 57.1 per cent
- Inhibitory per cent, carrageenan-induced edema, 3 hrs. ([4]; Table 6, 100 mg/kg oral): 59.9 per cent
- Inhibitory per cent, carrageenan-induced edema, 4 hrs. ([4]; Table 6, 100 mg/kg oral): 30.8 per cent
- Inhibitory per cent, carrageenan-induced edema, 5 hrs. ([4]; Table 6, 100 mg/kg oral): 26.1 per cent
- Inhibitory per cent, carrageenan-induced edema, 6 hrs. ([4]; Table 6, 100 mg/kg oral): 23.2 per cent

SMILES: O=C1NCC(Cc2ccccc2-c2ccccc2)O1 (stereo not drawn) [Compound XIV, 5-(o-phenylbenzyl)-2-oxazolidone]
- Inhibitory per cent, carrageenan-induced edema, 1 hr ([4]; Table 6, 100 mg/kg oral): 12.9 per cent
- Inhibitory per cent, carrageenan-induced edema, 2 hrs. ([4]; Table 6, 100 mg/kg oral): 35.2 per cent
- Inhibitory per cent, carrageenan-induced edema, 3 hrs. ([4]; Table 6, 100 mg/kg oral): 40.0 per cent
- Inhibitory per cent, carrageenan-induced edema, 4 hrs. ([4]; Table 6, 100 mg/kg oral): 15.6 per cent
- Inhibitory per cent, carrageenan-induced edema, 5 hrs. ([4]; Table 6, 100 mg/kg oral): 9.1 per cent
